According to article PMC6201084 (Antimicrobial Agents and Chemotherapy, 2018):
Where two headings read alike, the source gives them in different places.

Legend:
[1] = target: neuraminidase (NA) of influenza B/Minnesota/23/2015 (WT-D197) (Influenza B virus, UniProt A0A1S5RAG6); assay type: biochemical; conditions: three independent experiments, read-out: IC50 (nM), mean ± SD
[2] = target: neuraminidase (NA) of influenza B/England/598/2014 (WT-H273) (Influenza B virus, UniProt A0A1S5RAG6); assay type: biochemical
neuraminidase (NA) of influenza B/England/598/2014 (WT-H273), sequence (A0A1S5RAG6 entry or part of it, added parts left off): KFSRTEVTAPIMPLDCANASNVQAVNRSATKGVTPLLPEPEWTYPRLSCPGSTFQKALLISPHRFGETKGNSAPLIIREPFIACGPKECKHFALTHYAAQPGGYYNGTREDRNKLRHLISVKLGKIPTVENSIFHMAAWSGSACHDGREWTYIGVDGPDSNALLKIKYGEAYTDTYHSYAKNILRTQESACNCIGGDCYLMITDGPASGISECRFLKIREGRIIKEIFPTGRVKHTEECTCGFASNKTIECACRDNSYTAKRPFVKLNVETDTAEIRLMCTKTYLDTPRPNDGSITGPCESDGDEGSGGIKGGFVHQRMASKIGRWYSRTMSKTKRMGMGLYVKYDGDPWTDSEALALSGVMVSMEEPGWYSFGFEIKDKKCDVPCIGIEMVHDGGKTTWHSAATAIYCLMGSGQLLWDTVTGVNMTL

neuraminidase (NA) of influenza B/Minnesota/23/2015 (WT-D197), sequence (A0A1S5RAG6 entry or part of it, added parts left off): as above

**Q.** For `CCC(CC)[C@H](NC(C)=O)[C@@H]1[C@H](O)[C@@H](C(=O)O)C[C@H]1N=C(N)N` [Peramivir, peramivir], which IC50 [1] is on record?
**A.** 1 ± 0.1 nM

**Q.** And the IC50 ([2]; WT-H273 virus, three independent experiments, read-out: IC50 (nM), mean ± SD)?
**A.** 1 ± 0.05 nM

**Q.** What about the IC50 ([2]; approximate value given in discussion for wild-type influenza B viruses, read-out: IC50 for wild-type influenza B viruses) of the same molecule?
**A.** ~1 nM
